Data reported in ChEMBL document CHEMBL4507318, “Data for DCP probe BAY-985” (2021).

Assays:
[1] = target: Casein kinase I isoform alpha-like (Homo sapiens) (UniProt Q8N752)
[2] = target: Mitogen-activated protein kinase kinase kinase kinase 3 (Homo sapiens) (UniProt Q8IVH8)
[3] = target: BMP-2-inducible protein kinase (Homo sapiens) (UniProt Q9NSY1)
[4] = tested on: Epidermal growth factor receptor (Homo sapiens), P00533 [L861Q]
[5] = target: Aurora kinase C (Homo sapiens) (UniProt Q9UQB9)
[6] = tested on: Mast/stem cell growth factor receptor Kit (Homo sapiens), P10721 [L576P]
[7] = target: Serine/threonine-protein kinase Nek1 (Homo sapiens) (UniProt Q96PY6)
[8] = target: Serine/threonine-protein kinase Nek5 (Homo sapiens) (UniProt Q6P3R8)
[9] = tested on: Receptor-type tyrosine-protein kinase FLT3 (Homo sapiens), P36888 [UNDEFINED MUTATION]
Sequence of Receptor-type tyrosine-protein kinase FLT3 (Homo sapiens), P36888 [UNDEFINED MUTATION] (P36888 whole entry, looked up, change not shown): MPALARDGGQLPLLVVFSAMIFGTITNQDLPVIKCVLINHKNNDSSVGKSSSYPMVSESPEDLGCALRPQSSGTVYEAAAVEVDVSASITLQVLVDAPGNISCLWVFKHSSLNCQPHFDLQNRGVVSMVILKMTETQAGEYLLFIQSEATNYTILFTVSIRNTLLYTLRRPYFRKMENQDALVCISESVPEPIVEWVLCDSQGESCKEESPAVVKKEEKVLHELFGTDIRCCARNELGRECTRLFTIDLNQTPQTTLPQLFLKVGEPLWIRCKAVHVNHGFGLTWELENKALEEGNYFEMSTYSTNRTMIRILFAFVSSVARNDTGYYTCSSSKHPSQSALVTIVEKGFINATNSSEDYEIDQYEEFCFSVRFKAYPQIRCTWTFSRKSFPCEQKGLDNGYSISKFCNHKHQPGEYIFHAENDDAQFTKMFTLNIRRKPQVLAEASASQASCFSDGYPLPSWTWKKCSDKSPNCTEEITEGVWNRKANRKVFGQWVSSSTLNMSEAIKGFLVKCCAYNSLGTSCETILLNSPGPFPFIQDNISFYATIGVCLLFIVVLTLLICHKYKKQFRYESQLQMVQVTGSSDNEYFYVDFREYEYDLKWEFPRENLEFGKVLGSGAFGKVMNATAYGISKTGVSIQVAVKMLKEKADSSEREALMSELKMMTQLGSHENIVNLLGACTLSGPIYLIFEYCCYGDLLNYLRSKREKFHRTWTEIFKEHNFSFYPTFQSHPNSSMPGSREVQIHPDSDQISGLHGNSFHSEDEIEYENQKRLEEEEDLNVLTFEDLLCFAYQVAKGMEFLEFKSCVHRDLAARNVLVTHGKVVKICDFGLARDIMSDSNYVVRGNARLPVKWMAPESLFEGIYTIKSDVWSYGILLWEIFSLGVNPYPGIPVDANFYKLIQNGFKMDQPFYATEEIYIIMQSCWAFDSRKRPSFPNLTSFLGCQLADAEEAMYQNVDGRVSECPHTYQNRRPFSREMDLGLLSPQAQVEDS

[10] = target: Cyclin-dependent kinase 4 (Homo sapiens) (UniProt P11802)
[11] = target: Mitogen-activated protein kinase kinase kinase kinase 1 (Homo sapiens) (UniProt Q92918)
[12] = target: Misshapen-like kinase 1 (Homo sapiens) (UniProt Q8N4C8)
Sequence of Misshapen-like kinase 1 (Homo sapiens) (Q8N4C8 whole entry, looked up): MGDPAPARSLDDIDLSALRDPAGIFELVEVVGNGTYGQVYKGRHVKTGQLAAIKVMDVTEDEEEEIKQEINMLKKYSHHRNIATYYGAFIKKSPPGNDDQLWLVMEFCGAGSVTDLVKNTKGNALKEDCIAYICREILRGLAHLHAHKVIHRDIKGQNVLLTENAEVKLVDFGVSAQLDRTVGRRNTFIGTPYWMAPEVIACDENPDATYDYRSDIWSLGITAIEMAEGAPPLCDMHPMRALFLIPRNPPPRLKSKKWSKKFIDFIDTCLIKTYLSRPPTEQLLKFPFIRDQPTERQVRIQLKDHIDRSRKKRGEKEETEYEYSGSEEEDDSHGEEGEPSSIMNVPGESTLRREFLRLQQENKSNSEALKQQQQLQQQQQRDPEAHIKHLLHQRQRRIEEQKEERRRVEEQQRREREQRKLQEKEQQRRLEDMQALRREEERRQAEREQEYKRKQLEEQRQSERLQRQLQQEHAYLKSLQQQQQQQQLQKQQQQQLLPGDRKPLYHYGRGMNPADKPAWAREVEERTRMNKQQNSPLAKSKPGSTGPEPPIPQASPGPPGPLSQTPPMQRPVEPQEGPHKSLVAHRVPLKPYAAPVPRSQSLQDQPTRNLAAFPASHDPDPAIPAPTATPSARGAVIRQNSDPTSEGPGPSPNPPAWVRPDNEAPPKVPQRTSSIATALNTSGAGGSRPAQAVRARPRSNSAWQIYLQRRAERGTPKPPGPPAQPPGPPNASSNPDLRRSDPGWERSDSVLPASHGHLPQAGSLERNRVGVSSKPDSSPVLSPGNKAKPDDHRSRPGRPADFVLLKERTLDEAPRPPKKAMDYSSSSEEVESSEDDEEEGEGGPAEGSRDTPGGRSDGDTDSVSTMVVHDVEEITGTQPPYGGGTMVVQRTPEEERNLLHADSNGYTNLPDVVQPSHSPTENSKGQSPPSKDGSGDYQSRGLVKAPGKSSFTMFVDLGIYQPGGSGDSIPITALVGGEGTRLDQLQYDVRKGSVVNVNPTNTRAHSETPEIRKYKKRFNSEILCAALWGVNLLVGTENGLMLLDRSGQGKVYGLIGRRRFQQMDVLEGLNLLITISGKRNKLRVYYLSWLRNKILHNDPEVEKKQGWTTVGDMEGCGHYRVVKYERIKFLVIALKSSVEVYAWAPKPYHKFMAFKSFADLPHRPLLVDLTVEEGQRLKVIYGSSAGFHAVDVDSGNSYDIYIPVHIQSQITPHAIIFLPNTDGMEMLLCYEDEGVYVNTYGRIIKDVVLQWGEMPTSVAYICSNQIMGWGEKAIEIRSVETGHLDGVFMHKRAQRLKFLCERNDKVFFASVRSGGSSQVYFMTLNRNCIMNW

[13] = target: 5-hydroxytryptamine receptor 2B (Homo sapiens, UniProt P41595); details: Compound concentration 10.0 uM
[14] = tested on: ALK tyrosine kinase receptor (Homo sapiens), Q9UM73 [L1196M]
[15] = target: Atypical kinase COQ8B, mitochondrial (Homo sapiens) (UniProt Q96D53)
[16] = tested on: Phosphatidylinositol 4,5-bisphosphate 3-kinase catalytic subunit alpha isoform (Homo sapiens), P42336 [M1043I]
Sequence of Phosphatidylinositol 4,5-bisphosphate 3-kinase catalytic subunit alpha isoform (Homo sapiens), P42336 [M1043I] (P42336 whole entry M1043I, canonical isoform): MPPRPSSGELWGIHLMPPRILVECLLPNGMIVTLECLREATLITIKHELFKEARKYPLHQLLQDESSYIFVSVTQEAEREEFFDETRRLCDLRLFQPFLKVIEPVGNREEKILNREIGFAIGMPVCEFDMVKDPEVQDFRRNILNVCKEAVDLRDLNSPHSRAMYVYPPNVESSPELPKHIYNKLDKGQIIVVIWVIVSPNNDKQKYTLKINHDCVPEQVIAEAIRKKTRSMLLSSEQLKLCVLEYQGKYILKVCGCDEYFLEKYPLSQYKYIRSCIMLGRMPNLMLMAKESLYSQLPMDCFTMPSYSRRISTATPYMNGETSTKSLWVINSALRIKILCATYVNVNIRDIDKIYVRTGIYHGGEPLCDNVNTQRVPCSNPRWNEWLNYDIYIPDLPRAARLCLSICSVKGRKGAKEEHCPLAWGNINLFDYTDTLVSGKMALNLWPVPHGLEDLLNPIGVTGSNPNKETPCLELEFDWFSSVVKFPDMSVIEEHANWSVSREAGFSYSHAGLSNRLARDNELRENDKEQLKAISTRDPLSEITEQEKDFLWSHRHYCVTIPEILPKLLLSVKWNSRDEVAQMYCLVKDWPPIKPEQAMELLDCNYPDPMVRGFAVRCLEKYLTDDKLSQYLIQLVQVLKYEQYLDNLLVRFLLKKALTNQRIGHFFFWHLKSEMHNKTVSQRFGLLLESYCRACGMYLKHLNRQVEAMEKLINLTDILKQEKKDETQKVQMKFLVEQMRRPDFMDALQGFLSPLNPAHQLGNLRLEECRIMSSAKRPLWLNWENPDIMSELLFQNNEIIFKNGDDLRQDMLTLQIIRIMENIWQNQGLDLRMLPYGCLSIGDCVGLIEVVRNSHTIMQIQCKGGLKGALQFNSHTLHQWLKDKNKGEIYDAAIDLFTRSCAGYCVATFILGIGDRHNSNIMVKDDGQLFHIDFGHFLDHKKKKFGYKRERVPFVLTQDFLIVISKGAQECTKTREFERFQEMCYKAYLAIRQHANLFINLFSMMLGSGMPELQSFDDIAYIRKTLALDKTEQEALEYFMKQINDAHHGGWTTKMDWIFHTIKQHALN

[17] = tested on: Proto-oncogene tyrosine-protein kinase receptor Ret (Homo sapiens), P07949 [V804L]
[18] = target: Mitogen-activated protein kinase kinase kinase 3 (Homo sapiens) (UniProt Q99759)
[19] = target: Fibroblast growth factor receptor 2 (Homo sapiens) (UniProt P21802)
[20] = target: Serine/threonine-protein kinase PLK1 (Homo sapiens) (UniProt P53350)
Sequence of Serine/threonine-protein kinase PLK1 (Homo sapiens) (P53350 whole entry): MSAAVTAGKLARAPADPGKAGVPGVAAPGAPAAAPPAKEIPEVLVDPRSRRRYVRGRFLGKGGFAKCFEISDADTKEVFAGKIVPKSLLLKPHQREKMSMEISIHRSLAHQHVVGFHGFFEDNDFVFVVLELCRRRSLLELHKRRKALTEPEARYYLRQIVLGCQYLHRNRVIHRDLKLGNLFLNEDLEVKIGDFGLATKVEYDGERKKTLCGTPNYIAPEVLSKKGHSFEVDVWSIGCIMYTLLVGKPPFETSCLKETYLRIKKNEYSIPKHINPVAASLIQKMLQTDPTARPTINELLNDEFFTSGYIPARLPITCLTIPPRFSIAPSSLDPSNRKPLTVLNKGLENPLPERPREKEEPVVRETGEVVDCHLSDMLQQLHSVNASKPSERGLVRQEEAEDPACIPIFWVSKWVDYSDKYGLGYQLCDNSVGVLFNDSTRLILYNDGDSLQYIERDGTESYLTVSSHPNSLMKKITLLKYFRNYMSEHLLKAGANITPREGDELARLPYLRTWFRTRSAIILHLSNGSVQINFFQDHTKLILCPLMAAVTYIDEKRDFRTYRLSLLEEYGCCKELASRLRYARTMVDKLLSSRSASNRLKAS

[21] = target: Mitogen-activated protein kinase kinase kinase 2 (Homo sapiens) (UniProt Q9Y2U5)
[22] = target: Phosphatidylinositol 3-kinase catalytic subunit type 3 (Homo sapiens) (UniProt Q8NEB9)
[23] = target: Cyclin-dependent kinase-like 3 (Homo sapiens) (UniProt Q8IVW4)
[24] = tested on: Receptor-type tyrosine-protein kinase FLT3 (Homo sapiens), P36888 [UNDEFINED MUTATION]; remark: listed apart in the source
[25] = target: Tyrosine-protein kinase Srms (Homo sapiens) (UniProt Q9H3Y6)
[26] = target: Ephrin type-A receptor 2 (Homo sapiens) (UniProt P29317)
Sequence of Ephrin type-A receptor 2 (Homo sapiens) (P29317 whole entry): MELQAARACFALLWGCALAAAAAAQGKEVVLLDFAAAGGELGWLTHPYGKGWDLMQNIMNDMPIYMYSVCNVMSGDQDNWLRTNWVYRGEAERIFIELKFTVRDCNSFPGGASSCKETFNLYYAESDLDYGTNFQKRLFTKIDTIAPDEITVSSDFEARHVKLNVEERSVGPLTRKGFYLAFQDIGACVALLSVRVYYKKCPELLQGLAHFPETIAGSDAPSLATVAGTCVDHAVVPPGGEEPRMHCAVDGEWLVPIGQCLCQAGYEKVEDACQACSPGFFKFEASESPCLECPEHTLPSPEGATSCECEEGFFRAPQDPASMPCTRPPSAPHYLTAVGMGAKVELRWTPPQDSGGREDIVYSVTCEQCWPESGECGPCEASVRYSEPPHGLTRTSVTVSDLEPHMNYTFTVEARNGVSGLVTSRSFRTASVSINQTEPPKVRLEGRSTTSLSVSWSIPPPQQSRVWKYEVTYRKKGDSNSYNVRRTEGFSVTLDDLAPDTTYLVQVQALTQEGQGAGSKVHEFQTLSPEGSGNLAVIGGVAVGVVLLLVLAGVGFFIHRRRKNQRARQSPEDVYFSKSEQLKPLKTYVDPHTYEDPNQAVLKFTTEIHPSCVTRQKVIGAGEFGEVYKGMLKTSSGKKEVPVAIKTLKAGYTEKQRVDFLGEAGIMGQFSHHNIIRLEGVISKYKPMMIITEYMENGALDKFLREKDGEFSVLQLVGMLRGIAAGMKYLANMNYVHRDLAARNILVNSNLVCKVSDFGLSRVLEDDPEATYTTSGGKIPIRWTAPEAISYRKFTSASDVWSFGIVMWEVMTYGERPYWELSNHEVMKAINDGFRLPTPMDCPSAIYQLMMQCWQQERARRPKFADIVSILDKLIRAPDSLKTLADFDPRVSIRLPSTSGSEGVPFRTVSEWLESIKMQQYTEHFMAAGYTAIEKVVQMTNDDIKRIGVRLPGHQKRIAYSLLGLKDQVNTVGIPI

[27] = target: Hepatocyte growth factor receptor (Homo sapiens) (UniProt P08581)
[28] = target: Serine/threonine-protein kinase PAK 4 (Homo sapiens) (UniProt O96013)
[29] = target: 5'-AMP-activated protein kinase catalytic subunit alpha-2 (Homo sapiens) (UniProt P54646)
[30] = target: Alpha-2C adrenergic receptor (Homo sapiens) (UniProt P18825); details: Compound concentration 10.0 uM
[31] = target: Homeodomain-interacting protein kinase 2 (Homo sapiens) (UniProt Q9H2X6)
[32] = target: Ephrin type-A receptor 7 (Homo sapiens) (UniProt Q15375)
[33] = target: Ribosomal protein S6 kinase alpha-1 (Homo sapiens) (UniProt Q15418)
[34] = target: Cyclin-dependent kinase 13 (Homo sapiens) (UniProt Q14004)
[35] = target: Alpha-2B adrenergic receptor (Homo sapiens) (UniProt P18089); details: Compound concentration 10.0 uM
[36] = tested on: Hepatocyte growth factor receptor (Homo sapiens), P08581 [M1250T]
[37] = target: Mitogen-activated protein kinase kinase kinase 19 (Homo sapiens) (UniProt Q56UN5)
[38] = target: Mitogen-activated protein kinase kinase kinase 13 (Homo sapiens) (UniProt O43283)
[39] = target: Serine/threonine-protein kinase 32C (Homo sapiens) (UniProt Q86UX6)
[40] = target: Serine/threonine-protein kinase ULK3 (Homo sapiens) (UniProt Q6PHR2)
[41] = tested on: Epidermal growth factor receptor (Homo sapiens), P00533 [UNDEFINED MUTATION]
[42] = target: Serine/threonine-protein kinase 3 (Homo sapiens) (UniProt Q13188)
[43] = target: Myosin-IIIa (Homo sapiens) (UniProt Q8NEV4)
[44] = target: Hormonally up-regulated neu tumor-associated kinase (Homo sapiens) (UniProt P57058)
[45] = target: Serine/threonine-protein kinase TAO3 (Homo sapiens) (UniProt Q9H2K8)
[46] = Compound concentration 1000.0 nM
[47] = Compound concentration 100.0 nM

CN(C)c1ncnc(-c2ccc3nc(Nc4cc(CN5CCN(C(=O)CC(F)(F)F)CC5)ccn4)[nH]c3c2)c1Cl [BAY-440]
residual activity [1, 46]: 94%
residual activity [2, 46]: 74%
residual activity [3, 46]: 100%
residual activity [4, 46]: 96%
residual activity [5, 46]: 100%
residual activity [6, 46]: 87%
residual activity [7, 46]: 88%
residual activity [8, 46]: 100%
residual activity [9, 46]: 86%
residual activity [10, 46]: 83%
residual activity [11, 46]: 91%
residual activity [12, 46]: 57%
inhibition [13]: 39%
residual activity [14, 46]: 79%
residual activity [15, 46]: 90%
residual activity [16, 46]: 56%
residual activity [17, 46]: 100%
residual activity [18, 46]: 50%
residual activity [19, 46]: 100%
residual activity [20, 46]: 59%
residual activity [21, 46]: 78%
residual activity [22, 46]: 100%
residual activity [23, 46]: 86%
residual activity [24, 46]: 35%
residual activity [25, 46]: 88%
residual activity [26, 46]: 100%
residual activity [27, 46]: 69%
residual activity [28, 46]: 100%
residual activity [29, 46]: 100%
inhibition [30]: 7.09%
residual activity [31, 46]: 86%
residual activity [32, 46]: 100%
residual activity [33, 46]: 98%
residual activity [34, 46]: 84%
inhibition [35]: -2.22%
residual activity [36, 46]: 70%
residual activity [37, 46]: 15%
residual activity [38, 46]: 86%
residual activity [39, 46]: 100%
residual activity [40, 46]: 61%
residual activity [41, 46]: 100%
residual activity [42, 46]: 100%
residual activity [43, 46]: 100%
residual activity [44, 46]: 80%
residual activity [45, 46]: 33%

C[C@H](c1ccnc(Nc2nc3ccc(-c4cc(N(C)C)ncn4)cc3[nH]2)c1)N1CCN(C(=O)CC(F)(F)F)CC1 [BAY-985]
residual activity [1, 47]: 94%
residual activity [2, 47]: 100%
residual activity [3, 47]: 100%
residual activity [4, 47]: 76%
residual activity [5, 47]: 100%
residual activity [6, 47]: 91%
residual activity [7, 47]: 93%
residual activity [8, 47]: 100%
residual activity [9, 47]: 100%
residual activity [10, 47]: 100%
residual activity [11, 47]: 51%
residual activity [12, 47]: 94%
inhibition [13]: 60%
residual activity [14, 47]: 100%
residual activity [15, 47]: 79%
residual activity [16, 47]: 84%
residual activity [17, 47]: 83%
residual activity [18, 47]: 100%
residual activity [19, 47]: 100%
residual activity [20, 47]: 100%
residual activity [21, 47]: 100%
residual activity [22, 47]: 100%
residual activity [23, 47]: 86%
residual activity [24, 47]: 42%
residual activity [25, 47]: 97%
residual activity [26, 47]: 100%
residual activity [27, 47]: 100%
residual activity [28, 47]: 81%
residual activity [29, 47]: 100%
inhibition [30]: 9.82%
residual activity [31, 47]: 100%
residual activity [32, 47]: 100%
residual activity [33, 47]: 82%
residual activity [34, 47]: 100%
inhibition [35]: 24.7%
residual activity [36, 47]: 93%
residual activity [37, 47]: 10%
residual activity [38, 47]: 100%
residual activity [39, 47]: 100%
residual activity [40, 47]: 90%
residual activity [41, 47]: 89%
residual activity [42, 47]: 93%
residual activity [43, 47]: 100%
residual activity [44, 47]: 95%
residual activity [45, 47]: 41%
